Measured values: the supplement of paper PMC10307832

What was measured:
Experiment in all cases: relative viability (nuclei count vs DMSO), 5 days (fraction); higher = more cells survive
[1] = compound: C/C(=N\NC(=S)N1CCC1)/C2=CC=CC=N2 + CC(C)C[C@H](NC(=O)[C@H](Cc1ccccc1)NC(=O)c1cnccn1)B(O)O [Bortezomib] (partner 0.002 µM)
Procedure, shortened: (§1)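 Relative viability divides the nuclei count in treated wells by that in vehicle wells. Lung cancer cell lines were seeded in 1536-well plates, dosed by pin tool the next day, and fixed and stained after 5 days in one step with final 0.05% Triton X-100, 1% formaldehyde and 1 ug/ml Hoechst. Dosing was a single drug or a fixed anchor-drug dose plus five library-drug doses (not always all listed) in √10 steps, and values are medians of duplicate plates imaged at 4×.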

[2] = compound: C/C(=N\NC(=S)N1CCC1)/C2=CC=CC=N2 + CS(=O)(=O)CCNCc1ccc(-c2ccc3ncnc(Nc4ccc(OCc5cccc(F)c5)c(Cl)c4)c3c2)o1 [Lapatinib] (partner 2 µM)
Procedure, shortened: as §1

[3] = compound: C/C(=N\NC(=S)N1CCC1)/C2=CC=CC=N2 + NC(=O)Nc1cc(-c2cccc(F)c2)sc1C(=O)N[C@H]1CCCNC1 [AZD7762] (partner 0.2 µM)
Procedure, shortened: as §1

[4] = compound: C/C(=N\NC(=S)N1CCC1)/C2=CC=CC=N2 + Nc1ncn([C@H]2C[C@H](O)[C@@H](CO)O2)c(=O)n1 [Decitabine] (partner 2 µM)
Procedure, shortened: as §1

HCC-366
relative viability ([1]; first compound 0.05 µM): 0.0281
relative viability ([1]; first compound 0.1581 µM): 0.0189
relative viability ([1]; first compound 0.5 µM): 0.0149
relative viability ([1]; first compound 1.581 µM): 0.0223
relative viability ([1]; first compound 5 µM): 0.02
relative viability ([2]; first compound 0.05 µM): 0.0217
relative viability ([2]; first compound 0.1581 µM): 0.0257
relative viability ([2]; first compound 0.5 µM): 0.0157
relative viability ([2]; first compound 1.581 µM): 0.0217
relative viability ([2]; first compound 5 µM): 0.0218
relative viability ([3]; first compound 0.05 µM): 0.0319
relative viability ([3]; first compound 0.1581 µM): 0.0257
relative viability ([3]; first compound 0.5 µM): 0.0217
relative viability ([3]; first compound 1.581 µM): 0.0308
relative viability ([3]; first compound 5 µM): 0.0241
relative viability ([4]; first compound 0.05 µM): 0.103
relative viability ([4]; first compound 0.1581 µM): 0.0378
relative viability ([4]; first compound 0.5 µM): 0.0365
relative viability ([4]; first compound 1.581 µM): 0.035
relative viability ([4]; first compound 5 µM): 0.0275

HCC-827
relative viability ([1]; first compound 0.05 µM): 0.497
relative viability ([1]; first compound 0.1581 µM): 0.497
relative viability ([1]; first compound 0.5 µM): 0.325
relative viability ([1]; first compound 1.581 µM): 0.274
relative viability ([1]; first compound 5 µM): 0.282
relative viability ([2]; first compound 0.05 µM): 0.161
relative viability ([2]; first compound 0.1581 µM): 0.168
relative viability ([2]; first compound 0.5 µM): 0.201
relative viability ([2]; first compound 1.581 µM): 0.211
relative viability ([2]; first compound 5 µM): 0.19
relative viability ([3]; first compound 0.05 µM): 0.14
relative viability ([3]; first compound 0.1581 µM): 0.176
relative viability ([3]; first compound 0.5 µM): 0.104
relative viability ([3]; first compound 1.581 µM): 0.106
relative viability ([3]; first compound 5 µM): 0.172
relative viability ([4]; first compound 0.05 µM): 0.253
relative viability ([4]; first compound 0.1581 µM): 0.244
relative viability ([4]; first compound 0.5 µM): 0.237
relative viability ([4]; first compound 1.581 µM): 0.182
relative viability ([4]; first compound 5 µM): 0.185

HOP-62
relative viability ([1]; first compound 0.05 µM): 0.067
relative viability ([1]; first compound 0.1581 µM): 0.0599
relative viability ([1]; first compound 0.5 µM): 0.0594
relative viability ([1]; first compound 1.581 µM): 0.0602
relative viability ([1]; first compound 5 µM): 0.0491
relative viability ([2]; first compound 0.05 µM): 0.0752
relative viability ([2]; first compound 0.1581 µM): 0.0868
relative viability ([2]; first compound 0.5 µM): 0.0479
relative viability ([2]; first compound 1.581 µM): 0.0716
relative viability ([2]; first compound 5 µM): 0.0698
relative viability ([3]; first compound 0.05 µM): 0.0756
relative viability ([3]; first compound 0.1581 µM): 0.0789
relative viability ([3]; first compound 0.5 µM): 0.0592
relative viability ([3]; first compound 1.581 µM): 0.0773
relative viability ([3]; first compound 5 µM): 0.111
relative viability ([4]; first compound 0.05 µM): 0.121
relative viability ([4]; first compound 0.1581 µM): 0.142
relative viability ([4]; first compound 0.5 µM): 0.0886
relative viability ([4]; first compound 1.581 µM): 0.106
relative viability ([4]; first compound 5 µM): 0.117

LC-2-ad
relative viability ([1]; first compound 0.05 µM): 0.115
relative viability ([1]; first compound 0.1581 µM): 0.106
relative viability ([1]; first compound 0.5 µM): 0.114
relative viability ([1]; first compound 1.581 µM): 0.104
relative viability ([1]; first compound 5 µM): 0.0851
relative viability ([2]; first compound 0.05 µM): 0.113
relative viability ([2]; first compound 0.1581 µM): 0.122
relative viability ([2]; first compound 0.5 µM): 0.106
relative viability ([2]; first compound 1.581 µM): 0.112
relative viability ([2]; first compound 5 µM): 0.122
relative viability ([3]; first compound 0.05 µM): 0.212
relative viability ([3]; first compound 0.1581 µM): 0.202
relative viability ([3]; first compound 0.5 µM): 0.182
relative viability ([3]; first compound 1.581 µM): 0.165
relative viability ([3]; first compound 5 µM): 0.163
relative viability ([4]; first compound 0.05 µM): 0.267
relative viability ([4]; first compound 0.1581 µM): 0.244
relative viability ([4]; first compound 0.5 µM): 0.204
relative viability ([4]; first compound 1.581 µM): 0.227
relative viability ([4]; first compound 5 µM): 0.22

LCLC-97TM1
relative viability ([1]; first compound 0.05 µM): 0.0597
relative viability ([1]; first compound 0.1581 µM): 0.0472
relative viability ([1]; first compound 0.5 µM): 0.0458
relative viability ([1]; first compound 1.581 µM): 0.0548
relative viability ([1]; first compound 5 µM): 0.0452
relative viability ([2]; first compound 0.05 µM): 0.0934
relative viability ([2]; first compound 0.1581 µM): 0.101
relative viability ([2]; first compound 0.5 µM): 0.0997
relative viability ([2]; first compound 1.581 µM): 0.0662
relative viability ([2]; first compound 5 µM): 0.107
relative viability ([3]; first compound 0.05 µM): 0.0761
relative viability ([3]; first compound 0.1581 µM): 0.0694
relative viability ([3]; first compound 0.5 µM): 0.0641
relative viability ([3]; first compound 1.581 µM): 0.0548
relative viability ([3]; first compound 5 µM): 0.0577
relative viability ([4]; first compound 0.05 µM): 0.0771
relative viability ([4]; first compound 0.1581 µM): 0.284
relative viability ([4]; first compound 0.5 µM): 0.0691
relative viability ([4]; first compound 1.581 µM): 0.0739
relative viability ([4]; first compound 5 µM): 0.0762

LOU-NH91
relative viability ([1]; first compound 0.05 µM): 0.435
relative viability ([1]; first compound 0.1581 µM): 0.443
relative viability ([1]; first compound 0.5 µM): 0.501
relative viability ([1]; first compound 1.581 µM): 0.37
relative viability ([1]; first compound 5 µM): 0.387
relative viability ([2]; first compound 0.05 µM): 0.399
relative viability ([2]; first compound 0.1581 µM): 0.434
relative viability ([2]; first compound 0.5 µM): 0.487
relative viability ([2]; first compound 1.581 µM): 0.383
relative viability ([2]; first compound 5 µM): 0.357
relative viability ([3]; first compound 0.05 µM): 0.46
relative viability ([3]; first compound 0.1581 µM): 0.548
relative viability ([3]; first compound 0.5 µM): 0.479
relative viability ([3]; first compound 1.581 µM): 0.294
relative viability ([3]; first compound 5 µM): 0.428
relative viability ([4]; first compound 0.05 µM): 0.625
relative viability ([4]; first compound 0.1581 µM): 0.626
relative viability ([4]; first compound 0.5 µM): 0.579
relative viability ([4]; first compound 1.581 µM): 0.462
relative viability ([4]; first compound 5 µM): 0.495

LU99A
relative viability ([1]; first compound 0.05 µM): 0.135
relative viability ([1]; first compound 0.1581 µM): 0.108
relative viability ([1]; first compound 0.5 µM): 0.165
relative viability ([1]; first compound 1.581 µM): 0.124
relative viability ([1]; first compound 5 µM): 0.147
relative viability ([2]; first compound 0.05 µM): 0.153
relative viability ([2]; first compound 0.1581 µM): 0.132
relative viability ([2]; first compound 0.5 µM): 0.136
relative viability ([2]; first compound 1.581 µM): 0.128
relative viability ([2]; first compound 5 µM): 0.172
relative viability ([3]; first compound 0.05 µM): 0.153
relative viability ([3]; first compound 0.1581 µM): 0.12
relative viability ([3]; first compound 0.5 µM): 0.125
relative viability ([3]; first compound 1.581 µM): 0.107
relative viability ([3]; first compound 5 µM): 0.14
relative viability ([4]; first compound 0.05 µM): 0.222
relative viability ([4]; first compound 0.1581 µM): 0.624
relative viability ([4]; first compound 0.5 µM): 0.171
relative viability ([4]; first compound 1.581 µM): 0.162
relative viability ([4]; first compound 5 µM): 0.173
